Assay type in all cases: cell-based
The subject of assay [1] is Jurkat cells. Description: Electron microscopy of Jurkat cells. The following applies: LAC 6 μM; 24 h. The protocol: E and F: Morphology of Jurkat cell treated with LAC. Jurkat cells were cultured in the absence (E) or presence (F) of LAC (6 μM) for 24 h and were evaluated with EM. Arrows indicate condensed nuclei.
Electron microscopy was also employed to examine the mode of cell death induced by LAC. The resting T cells (cells cultured in medium, FIG. 3A), activated T cells (40 h after PHA activation, FIG. 3C), and Jurkat cells (FIG. 3E) were all healthy looking. […] The resting T cells treated with LAC (10 μM) for 24 h were still healthy (FIG. 3B).
T cells and Jurkat cells were examined by electron microscopy as described by Tsao and Duguid (Tsao et al., 1987, Exp. Cell Res. 168:365).

The test system of assay [2] is Jurkat cells. Description: Cell cycle progress in synchronized Jurkat cells (propidium iodide flow cytometry). As for the experimental part:
For the last 3 h of the treatment, LAC (6 μM) was added to the cultures destined to be treated by LAC later. The cells were then released by washing out nocodazole, and recultured in complete medium with or without 6 μM LAC. The cells were sampled at 0 h, 4 h and 8 h after the G2/M release, stained with propidium iodide, and analyzed with flow cytometry.
B. LAC slows the cell cycle progress from the G1/S boundary to the G2/M phase in synchronized Jurkat cells Jurkat cells were synchronized at the G1/S by isoleucine starvation followed by a hydroxyurea treatment. The synchronized cells were released by washing out hydroxyurea and were cultured in complete medium in the absence or presence of LAC (6 μM). The cells were sampled at 0 h, 3 h, 6 h, 9 h, 12 h, 15 h and 24 h after the release, and were stained with propidium iodide and analyzed with flow cytometry.
We used synchronized Jurkat cells to identify the LAC-sensitive phase(s) of the cell cycle. Jurkat cells were first synchronized at the G2/M boundary by nocodazole (FIG. 6A). […]
We next studied requirement of the proteasome activity for the progression from the G1/S boundary to the G2/M phase. […] It is to be noted that although the percentage of cells in the S/G2/M phase in the LAC-treated sample was similar to that of controls (the inset table of FIG. 6B), the peak of fluorescence was lagged behind (histogram array). […]
(In general: In flow cytometry, cells or beads pass a laser one at a time.)

In the next assay the test system is Bik. Description: Immunoblotting of Bik in mitochondrial fraction of Jurkat cells. The conditions noted are these: lactacystin 6 μM. The protocol:
Jurkat cells were treated with lactacystin (6 μM) for 5 h (lanes 2 and 4 of panel […]) or 7 h (lane 3 of panel B), lane 1 in panels A and B is untreated control samples. The cells were separated into mitochondrial (mito in panel A and mitochondria in panel B) and cytosolic (cytosol in panel A) fractions, and the lysate of these two fractions analyzed by immunoblotting using goat anti-Bik, and rabbit anti-Bax, Bak and Bad Ab (all from Santa Cruz Biotech, Santa Cruz, Calif.) followed by enhanced chemiluminescence (ECL, kit from Amersham). […] Jurkat cells, wild type Namalwa cells and Bcl-xL transfected Namalwa cells were treated with medium (lanes 1), staurosporine (0.3 μM, lanes 2) and lactacystin (6 μM, lanes 3) for 6 H. The proteins from the mitochondrial fraction of these cells were analyzed by immunoblotting and the amount of Bik, Bcl-xL, Bax, and Bak evaluated. The same membranes were used sequentially and probed with different antibodies against these factors. A nonspecific band recognized by a monoclonal antibody against cytochrome […] (COX) was used as control for even sample loading in the lanes.
(In general: In western blotting, separated proteins are transferred to a membrane and probed.)

From patent US20020049157A1, “Use of proteasome inhibitors for treating cancer, inflammation, autoimmune disease, graft rejection and septic shock” (priority 1998, published 2002) come the findings set out here.

As for `CC(=O)N[C@@H](CSC(=O)[C@]1([C@@H](O)C(C)C)NC(=O)[C@H](C)[C@@H]1O)C(=O)O` [LAC, lactacystin], in the assay with Jurkat cells [1], the “nuclear condensation by electron microscopy” value is reported as “frequently observed”. Moreover, in the assay on Jurkat cells [2] (HU-synchronized, LAC 6 μM added immediately after release), the “cell cycle progression from the G1/S boundary to the G2/M phase” value is “slowed but did not block”. Moreover, the “progress from G2/M through M phase to G1 phase” value in the assay on Jurkat cells [2] (nocodazole-synchronized, LAC 6 μM 3 h before and after release) is given as “at a similar pace as the control cells”. In addition, the “accumulation of Bik in Jurkat cells” value with Bik (6 h, staurosporine 0.3 μM) was “accumulates”. Moreover, the “amount of Bik” value with Bik (4 h, 5 h and 7 h) is “demonstable increase”.
